Assay results as given in patent US5270047A, “Local delivery of dipyridamole for the treatment of proliferative diseases” (priority 1991, dated 1993).
Entries after “also recorded” stand apart in the source; their conditions may differ.

Columns and labels:
[1] = system: balloon-injured left common carotid arteries; assay: Effect of local adventitial dipyridamole upon intimal thickening after balloon injury of the left common carotid artery; assay type: in vivo, male Sprague-Dawley rats; details: 600 μg/day, fourteen days
Protocol: Balloon injury to the left common carotid arteries of male Sprague-Dawley rats (350-400 g) was accomplished by three passes of an inflated 2F Fogarty balloon catheter as described by Clowes et al., Lab Invest. 49:208-215 (1983). Animals were anesthetized with Ketamine (80 mg/kg, intramuscular) and Rompun (16 mg/kg, intramuscular). Entry of the balloon catheter to the left common carotid artery was made via a nick in the external carotid artery, which was tied off at the end of the surgical procedure. Continuous local delivery of dipyridamole was accomplished by means of a minosmotic pump implanted subcutaneously in the back of the rat. […]
Fourteen days post surgery, animals were anesthetized (vide supra) and perfused through the abdominal aorta in a retrograde manner at physiological pressure with a zinc formalin fixative (Anatech LTD., Battle Creek, Mich.). […] Three adjacent cross sections (5 μm thick) of each vessel were cut, stained with hematoxylin and eosin, and cross-sectional intimal areas quantitated with an image analyzer (Quantimet 970, Cambridge Inst., Cambridge, UK).
The difference between intimal areas of drug-treated vs. control groups were analyzed for statistical significance using Student's t-test as described in Tallarida et al., Manual of Pharmacologic Calculations with Computer Programs, Springer-Verlag, New York, 1981, p. […]

[2] = system: Balb/c3T3 fibroblasts; assay: Inhibition of fibroblast growth (Coulter cell counting); assay type: cell-based
Protocol: Cells were then transferred to above medium containing indicated concentrations of dipyridamole. After three days cell growth was determined by counting using a ZM Coulter counter (Coulter Diagnostic, Inc.).

[3] = system: vascular restenosis; details: systemic administration; patients; cited from earlier work
[4] = system: Smooth muscle cells from rabbit aorta; assay: Inhibition of DNA synthesis (3H thymidine incorporation) induced by PDGF, FGF or EGF; assay type: cell-based; details: for inhibition at 0.08 µg/mL / inhibition at 0.15 µg/mL / inhibition at 0.32 µg/mL / inhibition at 0.64 µg/mL / inhibition at 1.2 µg/mL / inhibition at 2.5 µg/mL: Oryctolagus cuniculus, Platelet, 24 h, 1% platelet poor plasma; for inhibition at 0.08 µg/mL: dipyridamole 0.08 μg/ml; for inhibition at 0.15 µg/mL: dipyridamole 0.15 μg/ml; for inhibition at 0.32 µg/mL: dipyridamole 0.32 μg/ml; for inhibition at 0.64 µg/mL: dipyridamole 0.64 μg/ml; for inhibition at 1.2 µg/mL: dipyridamole 1.2 μg/ml; for inhibition at 2.5 µg/mL: dipyridamole 2.5 μg/ml
Protocol: Dipyridamole inhibits smooth muscle cell proliferation induced by multiple growth factors. Smooth muscle cells from rabbit aorta (derived by explant method) were seeded in 96 well tissue culture plates in DMEM containing 10% fetal bovine serum, 2 mM L-glutamine, 100 U/ml penicillin and 100 μg/ml streptomycin. Growth arrested, confluent cultures in 96 well microtiter plates were incubated in medium containing 1% platelet poor plasma, 2 mM L-glutanime, 100 U/ml penicillin, 100 μg/ml streptomycin, 20 ng/ml PDGF, 3 ng/ml EGF (Genzyme), 3 ng/ml FGF (Genzyme), 1 μci/ml ^3 H thymidine and indicated concentrations of dipyridamole. Cells were incubated at 37° C. for 24 hours under 5% CO2 /95% air. At the end of 24 hours, cells were fixed in methanol. DNA synthesis was determined by ^3 H thymidine incorporation as previously described.

[5] = system: Smooth muscle cells from rabbit aorta; assay: Effect of serum concentration on inhibition of PDGF-induced DNA synthesis (3H thymidine incorporation) by dipyridamole; assay type: cell-based; details: for inhibition at 0.04 µg/mL / inhibition at 0.08 µg/mL / inhibition at 0.15 µg/mL / inhibition at 0.3 µg/mL / inhibition at 0.6 µg/mL / inhibition at 1.2 µg/mL / inhibition at 2.5 µg/mL: Oryctolagus cuniculus, 24 h, 40 ng/ml PDGF; for inhibition at 0.04 µg/mL: dipyridamole 0.04 μg/ml; for inhibition at 0.08 µg/mL: dipyridamole 0.08 μg/ml; for inhibition at 0.15 µg/mL: dipyridamole 0.15 μg/ml; for inhibition at 0.3 µg/mL: dipyridamole 0.3 μg/ml; for inhibition at 0.6 µg/mL: dipyridamole 0.6 μg/ml; for inhibition at 1.2 µg/mL: dipyridamole 1.2 μg/ml; for inhibition at 2.5 µg/mL: dipyridamole 2.5 μg/ml
Protocol: Serum reduces the effectiveness of systemically administered dipyridamole as an inhibitor of cell proliferation. […] Growth arrested, confluent cultures in 96 well microtiter plates were incubated in medium containing 1%, 5% or 20% serum (Hyclone Laboratories, Logan, Utah), 2 mM L-glutamine, 100 U/ml penicillin, 100 μg/ml streptomycin, 40 ng/ml PDGF (Genzyme, Cambridge, Mass.), 1 μci/ml ^3 H thymidine (DuPont, Boston, Mass.) and indicated concentrations of dipyridamole (Sigma Chemical, St. Louis, Mo.). Cells were incubated at 37° C. for 24 hours under 5% CO2 /95% air. At the end of 24 hours, cells were fixed in methanol and DNA synthesis was determined by ^3 H thymidine incorporation as described in Bonin et al., Exp. Cell Res. 181, 475-482 (1989).

OCCN(CCO)c1nc(N2CCCCC2)c2nc(N(CCO)CCO)nc(N3CCCCC3)c2n1 [Dipyridamole, 2,6-bis(diethanolamino)-4,8-dipiperidinopyrimido[5,4-d]pyrimidine]
Area of Intimal Thickening (% of control) ([1]; P < 0.05 vs. control): 67.4 % of control
Area of Intimal Thickening ([1]; vehicle 0.129 ± 0.013, P < 0.05 vs. control): 0.087 ± 0.011 mm^2
inhibition at 1 µg/mL ([2]; Mus musculus, BALB/c3T3, 72 h, dipyridamole 1.0 μg/ml, three days, 5% fetal bovine serum): 0%
inhibition at 5 µg/mL ([2]; Mus musculus, BALB/c3T3, 72 h, dipyridamole 5.0 μg/ml, three days, 5% fetal bovine serum): 55%
inhibition at 10 µg/mL ([2]; Mus musculus, BALB/c3T3, 72 h, dipyridamole 10 μg/ml, three days, 5% fetal bovine serum): 72%
inhibition at 20 µg/mL ([2]; Mus musculus, BALB/c3T3, 72 h, dipyridamole 20 μg/ml, three days, 5% fetal bovine serum): 86%
inhibition at 40 µg/mL ([2]; Mus musculus, BALB/c3T3, 72 h, dipyridamole 40 μg/ml, three days, 5% fetal bovine serum): 95%
inhibition of proliferation of cells of mesenchyme origin ([2]; fibroblasts): inhibits proliferation of cells of mesenchyme origin
effect in treating or preventing vascular restenosis [3]: ineffective; also recorded: ineffective in treating or preventing vascular restenosis in patients
inhibition at 0.08 µg/mL ([4]; EGF (3 ng/ml)): 68%
inhibition at 0.15 µg/mL ([4]; EGF (3 ng/ml)): 76%
inhibition at 0.32 µg/mL ([4]; EGF (3 ng/ml)): 85%
inhibition at 0.64 µg/mL ([4]; EGF (3 ng/ml)): 90%
inhibition at 1.2 µg/mL ([4]; EGF (3 ng/ml)): 94%
inhibition at 2.5 µg/mL ([4]; EGF (3 ng/ml)): 96%
inhibition at 0.08 µg/mL ([4]; FGF (3 ng/ml)): 67%
inhibition at 0.15 µg/mL ([4]; FGF (3 ng/ml)): 74%
inhibition at 0.32 µg/mL ([4]; FGF (3 ng/ml)): 80%
inhibition at 0.64 µg/mL ([4]; FGF (3 ng/ml)): 87%
inhibition at 1.2 µg/mL ([4]; FGF (3 ng/ml)): 92%
inhibition at 2.5 µg/mL ([4]; FGF (3 ng/ml)): 93%
inhibition at 0.08 µg/mL ([4]; PDGF (20 ng/ml)): 64%
inhibition at 0.15 µg/mL ([4]; PDGF (20 ng/ml)): 71%
inhibition at 0.32 µg/mL ([4]; PDGF (20 ng/ml)): 82%
inhibition at 0.64 µg/mL ([4]; PDGF (20 ng/ml)): 89%
inhibition at 1.2 µg/mL ([4]; PDGF (20 ng/ml)): 93%
inhibition at 2.5 µg/mL ([4]; PDGF (20 ng/ml)): 96%
inhibition of smooth muscle cell proliferation induced by growth factors ([4]; PDGF, FGF, and EGF): inhibits cell proliferation induced by PDGF, FGF, and EGF
effect of serum on antiproliferative activity ([5]; 1%, 5% or 20% serum): increasing concentrations of serum attenuate the growth inhibitory effects of dipyridamole
inhibition at 0.04 µg/mL ([5]; 1% serum): 59%
inhibition at 0.08 µg/mL ([5]; 1% serum): 70%
inhibition at 0.15 µg/mL ([5]; 1% serum): 79%
inhibition at 0.3 µg/mL ([5]; 1% serum): 80%
inhibition at 0.6 µg/mL ([5]; 1% serum): 86%
inhibition at 1.2 µg/mL ([5]; 1% serum): 90%
inhibition at 2.5 µg/mL ([5]; 1% serum): 93%
inhibition at 0.04 µg/mL ([5]; 5% serum): 52%
inhibition at 0.08 µg/mL ([5]; 5% serum): 53%
inhibition at 0.15 µg/mL ([5]; 5% serum): 60%
inhibition at 0.3 µg/mL ([5]; 5% serum): 71%
inhibition at 0.6 µg/mL ([5]; 5% serum): 80%
inhibition at 1.2 µg/mL ([5]; 5% serum): 87%
inhibition at 2.5 µg/mL ([5]; 5% serum): 92%
inhibition at 0.04 µg/mL ([5]; 20% serum): 6%
inhibition at 0.08 µg/mL ([5]; 20% serum): 0%
inhibition at 0.15 µg/mL ([5]; 20% serum): 33%
inhibition at 0.3 µg/mL ([5]; 20% serum): 38%
inhibition at 0.6 µg/mL ([5]; 20% serum): 60%
inhibition at 1.2 µg/mL ([5]; 20% serum): 74%
inhibition at 2.5 µg/mL ([5]; 20% serum): 77%
